Laboratory results published in patent US11959096B2, “Methods for selective inhibition of pluripotent stem cells” (THE MEDICAL COLLEGE OF WISCONSIN, INC., priority 2014, dated 2024).

What was measured:
[1] = test system: hiPSCs; experiment: Cell viability of hiPSCs treated with FK866; assay type: cell-based, human; conditions: up to 72 hours
Protocol: FIG. 10 presents data regarding FK866 toxicity on human pluripotent stem cells. […] Cell viability data is presented for hiPSCs treated with FK866 for up to 72 hours. […] (B) Cell viability of human pluripotent stem cells 72 hours after treatment initiation with FK866. Cells were treated with a range of concentrations (1 nM to 10 μM) either continuously or for 24 hour pulse.
FIG. 10 presents cell viability data for hiPSCs treated with FK866 (FIG. 9B) for up to 72 hours. […] Therefore, an effective strategy for selectively eliminating pluripotent stem cells is to deplete NAD^+ levels using a NAMPT inhibitor. […] Thus, these compounds will be useful for selectively eliminating tumorigenic cells in cells prepared for transplantation, independent of whether teratoma-causing cells in differentiated cultures are pluripotent or comprise one or more differentiated phenotypes.

[2] = test system: confluent hiPSC; experiment: Colony formation assay (alkaline phosphatase staining); assay type: cell-based, human; conditions: 24 hour pulse, cells passaged, cultured 6 days
Protocol: The first iteration was adapted from previously described method, after 24 hours of treatment, hiPSC were detached with Accutase (StemCell Technologies), re-suspended in E8, passed though 12×75 mm tube with cell strainer cap (Falcon), and plated at 5e4 live cells per 2 cm^2. Media were changed every 48 hours and cells were cultured for six days, at which time staining for alkaline phosphatase was performed with leukocyte alkaline phosphatase kit (Sigma-Aldrich) as described and plates were visually inspected for phosphatase-positive colonies. This strategy represents the most common implementation of the colony formation assay. However, concerns regarding the cell death normally encountered during passaging prompted another approach for stricter assessment. In the second iteration, cells were treated for 24 hours, washed twice with 0.5 mL D-PBS, and media refreshed with E8. Thereafter, media were replaced daily for six days at which point staining for alkaline phosphatase activity was performed. […] Elimination of hiPSC from co-cultures with differentiated cells was performed with human fibroblasts and day 10 cardiomyocytes derived from hiPSC. hiPSC (DF6-9-9T) were plated at concentrations ranging from 100-10,000 live cells per well with human fibroblasts (1.75e5 cells) or day 10 differentiated cardiomyocytes (3.75e5 cells) in E8 and Y-27632 per 9.6 cm^2. […] Six days after plating, staining for alkaline phosphatase activity was performed. […] Imaging of wells was performed with a Sony Cyber-shot DSC-TX30 and individual colonies with a Nikon stereoscope.

[3] = test system: hiPSC; experiment: Live/dead staining (calcein AM / ethidium homodimer-1); assay type: cell-based, human; conditions: 72 hours, confluent; 2.5 μM STF-31, 30 μM WZB117, 20 μM PluriSIn
Protocol: (§1) In Vitro Toxicity Assays: Treatment with small molecules or glucose deprivation was initiated in hESC or hiPSC at 24 and 96 h post-plating and in vitro toxicity assays were performed at specified treatment endpoints 24-96 hours after treatment initiation. […] Neutral red assays for cell viability were performed as previously described. In vitro cell death was determined using SYTOX® Green nucleic acid stain (Life Technologies). Briefly, cells were incubated in 5 μM SYTOX® Green for 30 minutes at 37° C. in a humidified cell incubator with 5% CO2. Percent cell viability was determined by normalizing to replicate cells incubated with 120 μM digitonin (Sigma-Aldrich) and 5 μM SYTOX® Green. Imaging of cell viability was performed using Live/Dead® Viability/Cytotoxicity Kit, for mammalian cells (Life Technologies). Cells were stained for 20 minutes at room temperature with 4 μM Calcein AM to detect viable cells and 2 μM Ethidium Homodimer 1 to detect cells with compromised membranes. Representative images of alterations in cell morphology were acquired on confluent hPSC 24-72 hours after treatment initiation. Imaging was performed with a Nikon Ti-U inverted microscope.

[4] = test system: hiPSC (DF6-9-9T); experiment: Neutral red cell viability assay in hiPSC; assay type: cell-based, human; conditions: for elimination of hiPSC: 24 hour treatment, sub-confluent hiPSC; for toxicity: 72 hours
Protocol: Neutral red assays for cell viability were performed as previously described. In vitro cell death was determined using SYTOX® Green nucleic acid stain (Life Technologies). Briefly, cells were incubated in 5 μM SYTOX® Green for 30 minutes at 37° C. in a humidified cell incubator with 5% CO2. […] Imaging of cell viability was performed using Live/Dead® Viability/Cytotoxicity Kit, for mammalian cells (Life Technologies). Cells were stained for 20 minutes at room temperature with 4 μM Calcein AM to detect viable cells and 2 μM Ethidium Homodimer 1 to detect cells with compromised membranes. […] Imaging was performed with a Nikon Ti-U inverted microscope.

[5] = test system: hiPSC (DF6-9-9T); experiment: SYTOX Green cell viability assay; assay type: cell-based, human; conditions: 72 hours treatment; 2.5 μM STF-31, 30 μM WZB117, 20 μM PluriSIn
Protocol: as §1

[6] = test system: confluent hiPSC (DF6-9-9T); experiment: Bright field imaging of cell morphology; assay type: cell-based, human; conditions: 72 hours, 2.5 μM STF-31, 30 μM WZB117, 20 μM PluriSIn
Protocol: as §1

[7] = test system: PAX6 positive neural progenitor cells; assay type: cell-based; conditions: 72 hours continuous STF-31 plus exogenous NA
From the text: Data expressed as mean+S.D. (n=4); p<0.05, **p<0.01, ***p<0.001. […] Data expressed as mean+S.D. (n=4), *p<0.05, **p<0.01, ***p<0.001.

[8] = test system: sub-confluent hiPSC; experiment: Glucose uptake assay ([3H]2-deoxyglucose); assay type: cell-based, human; conditions: 1 hour of treatment; 2.5 μM STF-31, 30 μM WZB117
Protocol: For 1 hour treatment, cells were placed in Krebs-Ringer Hepes (KRH) containing treatment at 37° C. in a humidified cell incubator with 5% CO2. For 15, 18, and 24 hour treatments, cells were treated in E8 medium for 14, 17, and 23 hours, respectively, at which point media was changed to KRH buffer containing specific treatment for 1 hour. After specified treatment time, glucose uptake was performed with 0.5 μCi [^3H]2-deoxyglucose for 5 min at 37° C. as previously described. Uptake data were normalized to protein concentration measured with Lowry method.

[9] = test system: sub-confluent hiPSC; experiment: Immunoblot analysis of p-AMPK, AMPK, cleaved caspase-3 and -9; assay type: cell-based, human
Protocol: Immunoblot Analysis: Non-adherent cells were collected by centrifugation, adherent cells were washed once with d-PBS and lysed in Laemmli buffer, combined with non-adherent cell pellet, and heated at 95° C. for 5 minutes. Protein concentration was measured using the Qubit protein assay (Life Technologies). 25 μg of total protein was separated by SDS-PAGE, transferred to nitrocellulose membrane (GE Healthcare Life Sciences) and blocked according to the manufacturer's instructions. Membranes were incubated overnight at 4° C. with the following dilutions of primary antibodies: rabbit anti-cleaved caspase-3 (1:500), rabbit anti-caspase-9 (1:1000), rabbit anti-phospho-AMPK (1:1000), and rabbit anti-AMPK (1:1,000) from Cell Signaling Technology, and mouse anti-GAPDH (1:10,000) from Life Technologies. Membranes were then incubated with secondary antibodies for 45 minutes at the following concentrations: donkey anti-mouse-horseradish peroxidase (1:5,000) and donkey anti-rabbit-horseradish peroxidase (1:7,000) from Jackson Immunoresearch Laboratories, Inc., followed by detection using enhanced chemiluminescence.

[10] = test system: hiPSC; experiment: Extracellular flux analysis (ECAR, OCR); assay type: cell-based, human
Protocol: Extracellular Flux Analysis: hiPSC were plated at 6e4 cells per well on specialized microplate (Seahorse Bioscience) as previously described with several exceptions. Extracellular flux analysis was performed on hiPSC 48 hours post-plating using Seahorse Bioscience XF24 Analyzer. […] The microplate was equilibrated in non-CO2 incubator for 1.5 h, and analyzed for 16 h in Seahorse Bioscience XF24 Analyzer. Assay medium consists of basal E8 reagents with the following exceptions: basal DMEM F-12 without phenol red (Gibco), no sodium bicarbonate, and 2.5 mM GlutaMAX™ (Gibco) and 15 mM Hepes (Gibco). Assay medium was adjusted to pH 7.4 at 37° C. prior to use. Extracellular acidification rate (ECAR) and basal oxygen consumption rate (OCR) were collected approximately every 60 minutes. Treatments were normalized to baseline media control value and are represented as average of thee biological replicates.

[11] = test system: sub-confluent hiPSC; experiment: Cleaved caspase-3/7 fluorescence based assay; assay type: cell-based, human; conditions: after initiation of treatment; 2.5 μM STF-31, 30 μM WZB117
[12] = sub-confluent cells, 30 μM WZB117, 20 μM PluriSIn

O=C(/C=C/c1cccnc1)NCCCCC1CCN(C(=O)c2ccccc2)CC1 [FK866]
toxicity to human pluripotent stem cells relative to STF-31 [1]: toxic to human pluripotent stem cells at lower concentrations than STF-31

O=C(NNc1ccccc1)c1ccncc1 [PluriSIn]
formation of alkaline phosphatase-positive colonies [2]: did not prevent colony growth | live/dead staining [3]: not toxic | elimination of hiPSC ([4]; 30 μM WZB117, 20 μM PluriSIn): eliminated sub-confluent hiPSC | cell death with increasing concentrations ([4]; confluent cells, 20-40 μM): did not result in cell death | toxicity ([4]; confluent cells, 20 μM PluriSIn): did not induce significant toxicity | toxicity [4, 12]: only effective on sub-confluent cells | cell viability (SYTOX Green) [5]: no significant reduction | morphology of hiPSC [6]: minimal alterations in the morphology

O=C(O)c1cccnc1 [nicotinic acid]
rescue of cell death caused by STF-31 [7]: can be rescued

O=C(Oc1cccc(F)c1OC(=O)c1cccc(O)c1)c1cccc(O)c1 [WZB117]
formation of alkaline phosphatase-positive colonies [2]: did not prevent colony growth | decrease in glucose uptake [8]: 20% | live/dead staining [3]: not toxic | time at which cleaved caspase-3 and -9 are observed ([9]; 2.5 μM STF-31, 30 μM WZB117): 12 h | time by which total levels of AMPK decreased ([9]; 30 μM WZB117): ≤ 24 h | time at which p-AMPK is detected/increased ([9]; post-treatment, 2.5 μM STF-31, 30 μM WZB117): 12 h | elimination of hiPSC ([4]; 30 μM WZB117, 20 μM PluriSIn): eliminated sub-confluent hiPSC | toxicity ([4]; confluent cells treated 24 hours post-plating, 30 μM WZB117): toxic | toxicity ([4]; confluent cells treated 96 hours post-plating, 30 μM WZB117): significantly less toxic | toxicity [4, 12]: toxic | time before reductions in OCR ([10]; 2.5 μM STF-31, 30 μM WZB117): ≤ 8 h | effect on ECAR ([10]; 30 μM WZB117): decrease in ECAR by the earliest timepoint measured | time of induction of caspase-3/7 activity [11]: 12 h | cell viability (SYTOX Green) [5]: no significant reduction | morphology of hiPSC [6]: morphological changes such as cell swelling

NC(=O)c1cccnc1 [nicotinamide]
rescue of STF-31 mediated toxicity ([4]; 10 and 100 μM nicotinamide, data not shown): failed to rescue
